# Patent US20220402998A1, “PROTEASE SWITCH FOR DUAL TARGETS CHIMERIC ANTIGEN RECEPTOR T CELL THERAPY” (priority 2019, published 2022)
# System: NS3/4A protease domain of the CAR
# Assay: CAR surface expression on transduced T cells by flow cytometry with or without asunaprevir
# Type: cell-based, hepatitis C virus
# Procedure: For flow cytometry, cells are stained using standard procedures. Briefly, cells are suspended at a concentration of 1×10^7 cells/ml in PBS+3% FBS for analysis or in Sort Buffer (PBS, 25 mM HEPES, 1 mM EDTA, 0.1% BSA) for sorting. […] Cells are analyzed by flow cytometry using a CytoFLEX (Beckman Coulter Life Sciences, Indianapolis, Ind.) and operated under standard procedures. To enrich subpopulations of CD4+ and/or CD8+ cells, magnetically separated cells are stained with anti-CD4 and/or anti-CD8 antibodies and sorted on a FACScalibur Cell Sorter.
# After T cell transduction, different drugs were provided, CD19-, CD22-CAR were detected by CD19, CD22 protein through flow cytometry. Further, the biological characteristics of the dual-target switchable CAR-T cells were determined. For example, CD25 and CD69 antibodies were used to perform activation assays, CFSE for proliferation assays, CD4, CD8, CCR7 and CD45RA antibodies for determining T cell subsets, and Annexin-V for apoptosis assays. Further, cytotoxicity assays (Calcein-AM release), CD107a assay, and cytokine production detection were performed. These assays are of great importance in testing potency and defining how the switch system works.
smiles,measurement,setting,value
C=C[C@@H]1C[C@]1(NC(=O)[C@@H]1C[C@@H](Oc2ncc(OC)c3ccc(Cl)cc23)CN1C(=O)[C@@H](NC(=O)OC(C)(C)C)C(C)(C)C)C(=O)NS(=O)(=O)C1CC1 [asunaprevir],stability of CAR expression levels over time,in the presence of asunaprevir,stable over time
same,CAR expression on T cell surface,"in the presence of asunaprevir, flow cytometry",a significant portion of T cells express on their cell surface the CAR
same,expression levels of CARs on cell surface versus concentration,increasing concentrations of asunaprevir,increase with exposure of said T cells to increasing concentrations of asunaprevir
same,CARs on the surface of CAR-T cells after withdrawal,withdrawal of asunaprevir for 24 hours,significant reduction of CARs on the surface of CAR-T cells
same,CARs on the surface of CAR-T cells after withdrawal,withdrawal of asunaprevir for 48 hours,absence of CARs on CAR-T cells
